Reference: publication PMC7875316 (Biochemistry, 2020)

Molecular target: T1, ClpL (Streptococcus mutans, UniProt Q8DUH3)
T1 sequence (Q8DUH3 1-701): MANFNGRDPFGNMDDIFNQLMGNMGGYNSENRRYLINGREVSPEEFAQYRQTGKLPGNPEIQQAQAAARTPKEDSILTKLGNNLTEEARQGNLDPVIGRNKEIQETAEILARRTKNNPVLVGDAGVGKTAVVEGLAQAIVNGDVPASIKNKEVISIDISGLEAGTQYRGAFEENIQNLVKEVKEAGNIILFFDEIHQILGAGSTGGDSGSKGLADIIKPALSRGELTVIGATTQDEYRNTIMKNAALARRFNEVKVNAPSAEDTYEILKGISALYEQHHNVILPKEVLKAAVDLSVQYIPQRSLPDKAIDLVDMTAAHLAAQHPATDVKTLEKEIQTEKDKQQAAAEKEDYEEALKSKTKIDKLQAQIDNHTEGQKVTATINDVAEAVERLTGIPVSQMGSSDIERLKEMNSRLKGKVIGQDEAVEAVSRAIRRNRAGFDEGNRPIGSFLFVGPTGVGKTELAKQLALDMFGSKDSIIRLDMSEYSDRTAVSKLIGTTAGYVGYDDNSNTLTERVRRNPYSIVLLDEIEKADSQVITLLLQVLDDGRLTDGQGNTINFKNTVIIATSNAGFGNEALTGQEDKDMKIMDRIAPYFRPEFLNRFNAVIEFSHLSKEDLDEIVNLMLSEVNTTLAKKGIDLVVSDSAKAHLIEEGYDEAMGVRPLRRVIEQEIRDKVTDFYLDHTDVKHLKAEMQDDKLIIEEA
Test: protection from limited trypsin proteolysis, SDS-PAGE
Type: binding
Details: 1 mM ADP (legend; methods say 5 mM), 20 mM MgCl2, room temperature

## Nc1ncnc2c1ncn2[C@@H]1O[C@H](COP(=O)(O)OP(=O)(O)O)[C@@H](O)[C@H]1O [ADP]
  protection from limited trypsin proteolysis, SDS-PAGE: Addition of ATP or ADP dramatically increased the stability of ClpL to trypsin digestion.
